{
  "source": "patent US20110300067A1",
  "about": "“METHODS FOR INCREASING EFFICACY OF RADIOIMMUNOTHERAPY OF MELANOMA” (priority 2008, published 2011)",
  "key": {"A2058 human melanoma [1]": {"system": "A2058 human melanoma", "test": "histology of A2058 tumors from DTIC-treated mice (melanin release)", "format": "in vivo", "details": "50 mg/kg IP for 5 days; H&E, iron stain, melanin bleach; FIG. 3", "description": "Combination of chemotherapy and RIT. For combined chemotherapy with dacarbazine and RIT of A2058 melanoma-bearing nude mice, a preliminary experiment was performed which was aimed at determining the tolerability of dacarbazine by tumor-bearing mice and the ability of dacarbazine treatment to release some melanin from the melanoma cells. For this purpose 10 mg/mL dacarbazine in citrate buffer with pH ˜5.5 was prepared by dissolving 100 mg dacarbazine (Sigma) in 9.5 mL citrate buffer, pH 3.9 and 0.5 mL 0.1 M HCl. Five mice with A2058 tumors were treated for 5 days IP with 50 mg/kg dacarbazine (1.1 mg/mouse). Three days after completion of DTIC treatment, two mice were sacrificed, their tumors removed, fixed in ethanol/buffered formalin, cut into 5 μm slices and analyzed histologically for the presence of melanin by staining with hematoxylin and eosin (H&E), iron staining or by melanin bleach. The slides were viewed under 400× magnification in polarized light."}, "A2058 human melanoma [2]": {"system": "A2058 human melanoma", "test": "chemotherapy, RIT and combination of chemotherapy and RIT in A2058 melanoma-bearing mice", "format": "in vivo", "details": "FIG. 4A", "procedure": "Animal model and therapy studies. All animal studies were carried out in accordance with the guidelines of the Institutes for Animal Studies at the Albert Einstein College of Medicine. For RIT studies, 6-12 week-old female nude mice were implanted subcutaneously with 8×10^6 A2058 human melanoma cells into the right flank and used for therapeutic experiments 12 days after tumor volumes were approximately 0.15 cm^3 (0.02-0.4 cm^3).\nFor the experiment comparing the efficacy of chemotherapy, RIT and combination of chemotherapy, and RIT in A2058 melanoma-bearing mice, mice were inoculated with A2058 melanoma cells, randomized into groups of five after tumor volumes reached 0.15 cm^3 (0.02-0.4 cm^3). On Day 0 the treatment of groups #1 and 2 with 50 mg/kg DTIC for 5 consecutive days IP was initiated. Mice in group #3 received a single IP injection of 1 mCi ^188Re-6D2 mAb on Day 0. Twenty-four hrs after completion of pre-treatment with DTIC (Day 6), mice in group #2 received single IP dose of 1 mCi ^188Re-6D2 mAb. Group #4 was given PBS IP on Day 0.\nStatistical analysis. The Wilcoxon rank sum test was used to compare tumor sizes between different treatment groups in therapy studies. Differences were considered statistically significant when P values were <0.05."}, "mouse melanoma models": {"system": "mouse melanoma models", "details": "50 mg/kg/day×5 days; Fodstad et al. 1980; cited from earlier work"}, "metastatic melanoma": {"system": "metastatic melanoma", "details": "patients with metastatic melanoma; Sun and Schuchter, 2001; cited from earlier work"}, "A2058 tumor metabolism": {"system": "A2058 tumor metabolism", "test": "^18F-FDG microPET of RIT or chemotherapy treated melanoma-bearing mice", "format": "in vivo", "details": "re-imaged one week after initial PET scan; FIG. 5", "procedure": "MicroPositron Emission Tomography (microPET) of RIT or chemotherapy treated melanoma-bearing mice. To understand the effects of RIT with melanin-binding mAbs and chemotherapy with DTIC on A2058 tumor metabolism, microPET was performed of mice treated with DTIC or with RIT. For this purpose 6-7 mm in diameter tumor-bearing mice were fasted for 3 hrs, then placed in an anesthesia chamber with 1.5% isoflurane-oxygen mixture. Anesthesia continued through the IV injection, during a 1 hr uptake and through the imaging portion of the procedure. Each mouse was placed on a heating pad before scanning to maintain normal body temperature. Mice were injected via tail-vein with 11.1 to 14.8 MBq (300 to 400 μCi) ^18F-FDG and 1 hr later imaged in an R4 microPET scanner manufactured by CTI Concorde. The Full Width at Half Maximum for the R4 is about 2.1 mm with a field of view of 120 mm and a depth of field of 78 mm. Images were acquired for 10 minutes with a lower level discrimination of 350 keV and upper level discrimination of 650 keV. The timing window was set to 6 nsec. All of the default settings were selected during the histogram process. […] Data corrected for dead time counting losses, arc correction, random coincidences and the measured uniformity of detector responses (i.e. normalized) but not corrected for attenuation or scatter. […]"}},
  "data": [
    {"smiles": "CN(C)N=Nc1[nH]cnc1C(N)=O", "note": "[DTIC, 5-(3,3-dimethyl-1-triazeno)imidazole-4-carboxamide]", "values": [
      {"measurement": "release of melanin from tumor cells (histology)", "setting": "A2058 human melanoma [1]", "result": "releases some melanin from the cells"},
      {"measurement": "tumor growth from day 15", "setting": "A2058 human melanoma [2]; compared with combined treatment or RIT alone, p=0.02", "result": "started to grow much faster"},
      {"measurement": "tumor growth up to Day 15", "setting": "A2058 human melanoma [2]; early time points post-therapy, compared with RIT alone", "result": "more effective in impairing tumor growth than RIT alone"},
      {"measurement": "tumor growth", "setting": "mouse melanoma models", "result": "effectively slowed tumor growth"},
      {"measurement": "response rate", "setting": "metastatic melanoma", "result": "15% to 20%"},
      {"measurement": "^18F-FDG uptake in tumors", "setting": "A2058 tumor metabolism", "result": "became less diffuse and concentrated in the center of the tumor"}
    ]}
  ]
}
